ChEMBL document CHEMBL1152264, “Diazen-1-ium-1,2-diolated nitric oxide donor ester prodrugs of 5-(4-hydroxymethylphenyl)-1-(4-aminosulfonylphenyl)-3-trifluoromethyl-1H-pyrazole and its methanesulfonyl analog: synthesis, biological evaluation and nitric oxide release studies” (Bioorg Med Chem, 2008)

Legend:
[1] = target: T1, Prostaglandin G/H synthase 1 (Ovis aries, UniProt P05979)
T1 sequence (P05979 whole entry): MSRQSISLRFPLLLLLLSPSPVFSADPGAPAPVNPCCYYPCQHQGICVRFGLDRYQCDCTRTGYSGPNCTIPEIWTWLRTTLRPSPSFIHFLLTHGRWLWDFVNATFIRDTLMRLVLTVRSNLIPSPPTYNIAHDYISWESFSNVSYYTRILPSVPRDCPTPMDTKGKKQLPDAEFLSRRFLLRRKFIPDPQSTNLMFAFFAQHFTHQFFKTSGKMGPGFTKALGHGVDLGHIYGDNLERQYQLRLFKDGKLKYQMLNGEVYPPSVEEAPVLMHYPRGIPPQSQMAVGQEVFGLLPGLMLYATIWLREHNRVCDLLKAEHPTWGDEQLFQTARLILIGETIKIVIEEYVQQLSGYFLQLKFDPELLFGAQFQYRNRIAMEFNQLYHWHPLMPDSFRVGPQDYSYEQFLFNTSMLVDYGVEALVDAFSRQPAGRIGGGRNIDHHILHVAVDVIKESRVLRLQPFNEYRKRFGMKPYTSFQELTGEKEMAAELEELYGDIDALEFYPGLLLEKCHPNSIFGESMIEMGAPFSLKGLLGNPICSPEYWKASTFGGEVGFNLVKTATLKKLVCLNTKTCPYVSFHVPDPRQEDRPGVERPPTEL
Description: Inhibition of ovine COX1 by enzyme immuno assay

Rattus norvegicus = assay: Antiinflammatory activity against po dosed carrageenan-induced rat foot paw edema after 3 hrs; format: functional
[2] = Effect on nitric oxide release in phosphate buffer at pH 7.4 after 1.5 hrs; format: physicochemical; conditions: pH 7.4, 1.5 h
[3] = Effect on nitric oxide release in phosphate buffer at pH 7.4 after 1.5 hrs in presence of rat serum; format: ADME; conditions: pH 7.4, 1.5 h

IC50 [1]	Activity [2]	Activity [3]	SMILES	ED50 (Rattus norvegicus)
8.6 µM			CS(=O)(=O)c1ccc(-n2nc(C(F)(F)F)cc2-c2ccc(CO)cc2)cc1	112 µmol/kg
> 100 µM	8.2%	76%	CC(=O)OCO/N=[N+](\[O-])N1CCC[C@H]1C(=O)OCc1ccc(-c2cc(C(F)(F)F)nn2-c2ccc(S(N)(=O)=O)cc2)cc1	94.3 µmol/kg
	6.1%	77%	CC(=O)OCO/N=[N+](\[O-])N1CCC[C@H]1C(=O)OCc1ccc(-c2cc(C(F)(F)F)nn2-c2ccc(S(C)(=O)=O)cc2)cc1	76.7 µmol/kg
			CC(=O)Oc1ccccc1C(=O)O [ASPIRIN]	710 µmol/kg
			Cc1ccc(-c2cc(C(F)(F)F)nn2-c2ccc(S(N)(=O)=O)cc2)cc1 [CELECOXIB]	30.9 µmol/kg
			CC(C)Cc1ccc(C(C)C(=O)O)cc1 (stereo not drawn) [IBUPROFEN]	327 µmol/kg
			NS(=O)(=O)c1ccc(-n2nc(C(F)(F)F)cc2-c2ccc(CO)cc2)cc1 [PRIMARY ALCOHOL METABOLITE OF CELECOXIB]	77.1 µmol/kg
